Reference: US10668043B2, “Potentiated antimicrobial agents” (priority 2014, dated 2020)
≈ marks a conversion by molar mass, not a printed value.

Key:
E. coli [1] = assay: Double dilution test; format: cell-based; conditions: strain ATCC 25922; cineol […]
Excerpt: (§1) The double dilution test is a MIC measurement test made on successive dilutions of the 2 products of the composition. […] The summary table expresses for each strain and for each dilution of the booster the measured antibiotic MIC.
(§2) The code enabling the results to be interpreted is the following one: no sign “^+” if the MIC is equivalent with and without booster, a sign “^+” if the value is lower with booster.

Staphylococcus [2] = assay: Double dilution test; format: cell-based; conditions: strain 8148
Excerpt: as §1, §2

E. coli [3] = assay: etest on agar containing the booster; format: cell-based; parameters: MIC (e-test): unit not given beside the values
Excerpt: (§3) The corresponding tests are made based on the usual MIC test: the etest® (Biomerieux) strip is deposited onto the surface of a seeded agar medium in which the booster has been incorporated. This test enables solvent effect risks, that is a possible interaction with the solvent used in vitro, to be minimised.
(§4) The control corresponds to the test made without cineol. A control is made in each solvent tested: distilled water, Tween/water and DMSO. • ED control=antibiotic alone in distilled water • DMSO control=antibiotic alone in DMSO • TE control=antibiotic alone in Tween® 80

Staphylococcus [4] = assay: etest on agar containing the booster; format: cell-based; parameters: MIC (e-test): unit not given beside the values
Excerpt: as §3, §4

Pasteurella = assay: etest on agar containing the booster; format: cell-based
Excerpt: The corresponding tests are made based on the usual MIC test: the etest® (Biomerieux) strip is deposited onto the surface of a seeded agar medium in which the booster has been incorporated.
as §4
Other e-tests are also made on Pasteurella.

MSSA 8238 = conditions: Balb/c, mouse, in vivo
Protocol: To Balb/c mice, is injected (Sc.) the antimicrobial product or the antimicrobial+booster mixture.
At different post-injection times, the mice are euthanised, and blood sampled, heparined and centrifuged to extract plasma thereof
Antibacterial effects are measured after 24 h incubation. The successive dilutions enable the antimicrobial effect to be determined and compared with the MIC. The efficient concentration/MIC ratio is thus determined.

For `CC1(C)S[C@@H]2[C@H](NC(=O)[C@H](N)c3ccc(O)cc3)C(=O)N2[C@H]1C(=O)O` [Amox, amoxicillin], which amoxicillin MIC (E. coli [1]) is on record?
Its amoxicillin MIC is 8 µg/mL.

What about the amoxicillin MIC (Staphylococcus [2]; Amox, cineol 0) of the same molecule?
The amoxicillin MIC was 8 µg/mL.

And the “amoxicillin MIC” value (Staphylococcus [2]; cineol 10 mg/L)?
Its value is 0.5^+.

And the amoxicillin MIC (Staphylococcus [2]; cineol 20 mg/L)?
Its amoxicillin MIC is 8 µg/mL.

And the amoxicillin MIC (Staphylococcus [2]; cineol 37.5 mg/L)?
Its amoxicillin MIC is 8 µg/mL.

What about the amoxicillin MIC (Staphylococcus [2]; cineol 75 mg/L) of the same molecule?
Its amoxicillin MIC is 8 µg/mL.

What about the amoxicillin MIC (Staphylococcus [2]; cineol 150 mg/L) of the same molecule?
Its amoxicillin MIC is 8 µg/mL.

What about the amoxicillin MIC (Staphylococcus [2]; cineol 300 mg/L) of the same molecule?
Its amoxicillin MIC is 8 µg/mL.

And the amoxicillin MIC (Staphylococcus [2]; cineol 600 mg/L)?
Its amoxicillin MIC is 8 µg/mL.

What about the amoxicillin MIC (Staphylococcus [2]; cineol 2,500 mg/L) of the same molecule?
The amoxicillin MIC was 8 µg/mL.

And the amoxicillin MIC (Staphylococcus [2]; cineol 5,000 mg/L)?
Its amoxicillin MIC is 8 µg/mL.

And the amoxicillin MIC (Staphylococcus [2]; cineol 10,000 mg/L)?
The amoxicillin MIC was 4 µg/mL.

And the “amoxicillin MIC” value (Staphylococcus [2]; cineol 25,000 mg/L)?
Its value is 16^.

And the “amoxicillin MIC” value (Staphylococcus [2]; cineol 50,000 mg/L)?
The value was 0.25^+.

What about the amoxicillin MIC (Staphylococcus [2]; cineol […]) of the same molecule?
Its amoxicillin MIC is 8 µg/mL.

What about the “MIC (e-test)” value (E. coli [3]; strain 8141, Cineol 4 mg/L, DMSO) of the same molecule?
Its value is 6^+.

What about the “MIC (e-test)” value (E. coli [3]; strain 8141, Cineol 16 mg/L, DMSO) of the same molecule?
Its value is 0.1^+.

And the “MIC (e-test)” value (E. coli [3]; strain 8141, ED control, no cineol)?
Its value is 8^+.

What about the “MIC (e-test)” value (E. coli [3]; strain 8150, Cineol 4 mg/L, DMSO) of the same molecule?
The value was 6^+.

And the “MIC (e-test)” value (E. coli [3]; strain 8150, Cineol 16 mg/L, DMSO)?
The value was 0.1^+.

What about the “MIC (e-test)” value (E. coli [3]; strain 8150, ED control, no cineol) of the same molecule?
The value was 8^+.

And the “MIC (e-test)” value (E. coli [3]; strain 8156, Cineol 4 mg/L, DMSO)?
Its value is 8^+.

And the “MIC (e-test)” value (E. coli [3]; strain 8156, Cineol 16 mg/L, DMSO)?
The value was 8^+.

What about the “MIC (e-test)” value (E. coli [3]; strain 8156, ED control, no cineol) of the same molecule?
The value was 12^+.

What about the “MIC (e-test)” value (E. coli [3]; strain ATCC25922, Cineol 4 mg/L, DMSO) of the same molecule?
Its value is 12^+.

And the “MIC (e-test)” value (E. coli [3]; strain ATCC25922, Cineol 16 mg/L, DMSO)?
The value was 12^+.

What about the “MIC (e-test)” value (E. coli [3]; strain ATCC25922, ED control, no cineol) of the same molecule?
Its value is 16^+.

And the “MIC (e-test)” value (Staphylococcus [4]; strain 8143, Cineol 4 mg/L, DMSO)?
Its value is 1.5^+.

And the “MIC (e-test)” value (Staphylococcus [4]; strain 8143, Cineol 16 mg/L, DMSO)?
Its value is 1.5^+.

And the “MIC (e-test)” value (Staphylococcus [4]; strain 8143, ED control, no cineol)?
Its value is 2^+.

And the “MIC (e-test)” value (Staphylococcus [4]; strain 8146, Cineol 4 mg/L, DMSO)?
The value was 0.38^+.

What about the “MIC (e-test)” value (Staphylococcus [4]; strain 8146, Cineol 16 mg/L, DMSO) of the same molecule?
Its value is 0.19^+.

What about the “MIC (e-test)” value (Staphylococcus [4]; strain 8146, ED control, no cineol) of the same molecule?
Its value is 0.5^+.

What about the “MIC (e-test)” value (Staphylococcus [4]; strain 8149, Cineol 4 mg/L, DMSO) of the same molecule?
Its value is 0.5^+.

And the “MIC (e-test)” value (Staphylococcus [4]; strain 8149, Cineol 16 mg/L, DMSO)?
Its value is 0.38^+.

And the “MIC (e-test)” value (Staphylococcus [4]; strain 8149, ED control, no cineol)?
The value was 1^+.

And the “MIC (e-test)” value (Staphylococcus [4]; strain 8240, Cineol 4 mg/L, DMSO)?
Its value is 12^+.

And the “MIC (e-test)” value (Staphylococcus [4]; strain 8240, Cineol 16 mg/L, DMSO)?
Its value is 16^+.

What about the “MIC (e-test)” value (Staphylococcus [4]; strain 8240, ED control, no cineol) of the same molecule?
Its value is 24^+.

What about the “MIC (e-test)” value (Staphylococcus [4]; strain 8241, Cineol 4 mg/L, DMSO) of the same molecule?
The value was 8^+.

And the “MIC (e-test)” value (Staphylococcus [4]; strain 8241, Cineol 16 mg/L, DMSO)?
The value was 12^+.

And the “MIC (e-test)” value (Staphylococcus [4]; strain 8241, ED control, no cineol)?
The value was 32^+.

And the “MIC (e-test)” value (Staphylococcus [4]; strain 10168, Cineol 4 mg/L, DMSO)?
The value was 1^+.

And the “MIC (e-test)” value (Staphylococcus [4]; strain 10168, Cineol 16 mg/L, DMSO)?
The value was 1^+.

What about the “MIC (e-test)” value (Staphylococcus [4]; strain 10168, ED control, no cineol) of the same molecule?
Its value is 2^+.

What about the MIC (e-test) (Pasteurella; strain 14012, 5 mg cineol DMSO) of the same molecule?
Its MIC (e-test) is 0.094 µg/mL (≈ 0.257 µM).

And the MIC (e-test) (Pasteurella; strain 14012, 5 mg cineol TE)?
The MIC (e-test) was 0.094 µg/mL (≈ 0.257 µM).

And the MIC (e-test) (Pasteurella; strain 14012, 5 mg cineol water)?
Its MIC (e-test) is 0.094 µg/mL (≈ 0.257 µM).

And the MIC (e-test) (Pasteurella; strain 14012, 10 mg cineol TE)?
Its MIC (e-test) is 0.094 µg/mL (≈ 0.257 µM).

And the MIC (e-test) (Pasteurella; strain 14012, 10 mg cineol water)?
Its MIC (e-test) is 0.094 µg/mL (≈ 0.257 µM).

And the MIC (e-test) (Pasteurella; strain 14012, DMSO control)?
Its MIC (e-test) is 0.094 µg/mL (≈ 0.257 µM).

What about the MIC (e-test) (Pasteurella; strain 14012, ED control) of the same molecule?
The MIC (e-test) was 0.032 µg/mL (≈ 0.0876 µM).

What about the MIC (e-test) (Pasteurella; strain 14012, TE control) of the same molecule?
Its MIC (e-test) is 0.19 µg/mL (≈ 0.52 µM).

What about the MIC (e-test) (Pasteurella; strain 14013, 5 mg cineol DMSO) of the same molecule?
Its MIC (e-test) is 0.25 µg/mL (≈ 0.684 µM).

And the MIC (e-test) (Pasteurella; strain 14013, 5 mg cineol TE)?
The MIC (e-test) was 0.25 µg/mL (≈ 0.684 µM).

And the MIC (e-test) (Pasteurella; strain 14013, 5 mg cineol water)?
The MIC (e-test) was 0.25 µg/mL (≈ 0.684 µM).

And the MIC (e-test) (Pasteurella; strain 14013, 10 mg cineol DMSO)?
The MIC (e-test) was 0.25 µg/mL (≈ 0.684 µM).

What about the MIC (e-test) (Pasteurella; strain 14013, 10 mg cineol water) of the same molecule?
Its MIC (e-test) is 0.19 µg/mL (≈ 0.52 µM).

And the MIC (e-test) (Pasteurella; strain 14013, DMSO control)?
The MIC (e-test) was 0.19 µg/mL (≈ 0.52 µM).

And the MIC (e-test) (Pasteurella; strain 14013, ED control)?
The MIC (e-test) was 0.19 µg/mL (≈ 0.52 µM).

What about the MIC (e-test) (Pasteurella; strain 14013, TE control) of the same molecule?
The MIC (e-test) was 0.25 µg/mL (≈ 0.684 µM).

What about the MIC (e-test) (Pasteurella; strain 14014, 5 mg cineol DMSO) of the same molecule?
Its MIC (e-test) is 0.094 µg/mL (≈ 0.257 µM).

What about the MIC (e-test) (Pasteurella; strain 14014, 5 mg cineol TE) of the same molecule?
Its MIC (e-test) is 0.094 µg/mL (≈ 0.257 µM).

What about the MIC (e-test) (Pasteurella; strain 14014, 5 mg cineol water) of the same molecule?
The MIC (e-test) was 0.19 µg/mL (≈ 0.52 µM).

And the MIC (e-test) (Pasteurella; strain 14014, 10 mg cineol TE)?
The MIC (e-test) was 0.094 µg/mL (≈ 0.257 µM).

And the MIC (e-test) (Pasteurella; strain 14014, ED Control)?
Its MIC (e-test) is 0.094 µg/mL (≈ 0.257 µM).

What about the MIC (e-test) (Pasteurella; strain 14014, TE control) of the same molecule?
Its MIC (e-test) is 0.094 µg/mL (≈ 0.257 µM).

What about the “Time spent beyond the MIC” value (MSSA 8238) of the same molecule?
Its value is less than 5 h.
